Data on 38 compounds can be found in patent publication US7589097B2, “Triazol[4,5-d] pyramidine derivatives and their use as purinergic receptor antagonists” (Vernalis Research Limited, priority 2001, dated 2009).

Structures can show the parent of a compound that is named as a salt.

Broadly, the melting point is the temperature of the solid-liquid transition.

`CC(=O)NCc1cccc(Cn2nnc3c(-c4ccco4)nc(N)nc32)c1` [Example 68, N-(3-(5-amino-7-(2-furyl)-3H-[1,2,3]triazolo[4,5-d]pyrimidin-3-ylmethyl)benzyl)acetamide] came in with a melting point of 228.1 to 229.3 °C. Compound `Nc1nc(-c2ccco2)c2nnn(Cc3ccsc3)c2n1` [Example 179, 7-(2-furyl)-3-(3-thienylmethyl)-3H-[1,2,3]triazolo[4,5-d]pyrimidine-5-amine] registered a melting point of 215.8 to 216.9 °C. Then `Cc1ccc(-c2nc(N)nc3c2nnn3Cc2ccccc2N)o1` (as salt: hydrochloride) [Example 74, 3-(2-aminobenzyl)-7-(5-methyl-2-furyl)-3H-[1,2,3]triazolo[4,5-d]pyrimidine-5-amine hydrochloride], with 214.6 to 215.2 °C; and `Nc1nc(-c2ccco2)c2nnn(Cc3cc(F)cc(F)c3F)c2n1` [Example 168, 7-(2-furyl)-3-(2,3,5-trifluorobenzyl)-3H-[1,2,3]triazolo[4,5-d]pyrimidine-5-amine], with 204 to 204.2 °C. With `Nc1nc(-c2ccco2)c2nnn(Cc3ccc(F)c([N+](=O)[O-])c3)c2n1` [Example 129, 3-(4-fluoro-3-nitrobenzyl)-7-(2-furyl)-3H-[1,2,3]triazolo[4,5-d]pyrimidine-5-amine], the melting point lay in the range of 266.5 to 266.7 °C.

In the case of `Nc1nc(-c2ccco2)c2nnn(Cc3ccc(N)c(F)c3)c2n1` [Example 147, 3-(4-amino-3-fluorobenzyl)-7-(2-furyl)-3H-[1,2,3]triazolo[4,5-d]pyrimidine-5-amine], the melting point was > 200 °C (dec.).

Turning to `COCCc1cccc(Cn2nnc3c(-c4ccco4)nc(N)nc32)n1` [Example 264, 7-(2-furyl)-3-(6-(2-methoxyethyl)-2-pyridylmethyl)-3H-[1,2,3]triazolo[4,5-d]pyrimidine-5-amine], the melting point lay within 162 to 162.6 °C.

With `CC(C)(C)OC(=O)Nc1ccc(Cn2nnc3c(-c4ccco4)nc(N)nc32)cc1F` [Example 143, tert-butyl N-(4-(5-amino-7-(2-furyl)-3H-[1,2,3]triazolo[4,5-d]pyrimidine-3-ylmethyl)-2-fluorophenyl)carbamate], the melting point lay in the range of 167 to 167.3 °C. Then `Nc1nc(-c2ccco2)c2nnn(Cc3cc4ccccc4[nH]3)c2n1` [Example 207, 3-(2-indolylmethyl)-7-(2-furyl)-3H-[1,2,3]triazolo[4,5-d]pyrimidine-5-amine], with 289.1 to 289.3 °C. `Nc1nc(-c2ccco2)c2nnn(Cc3ccccn3)c2n1` [Example 24, 7-(2-Furyl)-3-(2-pyridylmethyl)-3H-[1,2,3]triazolo[4,5-d]pyrimidine-5-amine]: the melting point lay within 196.9 to 197.1 °C. The value for `CCOc1cccc(Cn2nnc3c(-c4ccco4)nc(N)nc32)n1` [Example 253, 3-(6-ethoxy-2-pyridylmethyl)-7-(2-furyl)-3H-[1,2,3]triazolo[4,5-d]pyrimidine-5-amine] was 181.8 to 182.1 °C; that for `Nc1nc(-c2ccco2)c2nnn(Cc3cc(F)ccc3[N+](=O)[O-])c2n1` [Example 155, 3-(5-fluoro-2-nitrobenzyl)-7-(2-furyl)-3H-[1,2,3]triazolo[4,5-d]pyrimidine-5-amine] was 258.6 to 258.7 °C. The value for `Nc1nc(-c2ccco2)c2nnn(Cc3ccc(N)c(O)c3)c2n1` [Example 173, 3-(4-amino-3-hydroxybenzyl)-7-(2-furyl)-3H-[1,2,3]triazolo[4,5-d]pyrimidine-5-amine] was 239.6 to 239.8 °C. Then `Nc1nc(-c2ccco2)c2nnn(Cc3cnccn3)c2n1` [Example 128, 7-(2-furyl)-3-(2-pyrazinylmethyl)-3H-[1,2,3]triazolo[4,5-d]pyrimidine-5-amine], with 129.1 to 131 °C. As to `Nc1cccc(Cn2nnc3c(-c4nccs4)nc(N)nc32)c1` [Example 83, 3-(3-aminobenzyl)-7-(2-thiazolyl)-3H-[1,2,3]triazolo[4,5-d]pyrimidine-5-amine], the melting point was 252.8 to 253.3 °C. Consider `Nc1nc(-c2ccco2)c2nnn(Cc3csc(-c4ccccc4)n3)c2n1` [Example 108, 7-(2-furyl)-3-(2-phenylthiazol-4-ylmethyl)-3H-[1,2,3]triazolo[4,5-d]pyrimidine-5-amine], for which the melting point was in the range of 215 to 215.3 °C. Then `Cc1cc(Cn2nnc3c(-c4ccco4)nc(N)nc32)c2[nH]ccc2c1` [Example 243, 7-(2-furyl)-3-(5-methyl-7-indolylmethyl)-3H-[1,2,3]triazolo[4,5-d]pyrimidine-5-amine], with > 300 °C (dec.). The value for `Nc1nc(-c2ccco2)c2nnn(Cc3ccc4cc[nH]c4c3)c2n1` [Example 152, 7-(2-Furyl)-3-(6-indolylmethyl)-3H-[1,2,3]triazolo[4,5-d]pyrimidine-5-amine] was 298.9 to 299 °C. The value for `Cc1cnc(Cn2nnc3c(-c4ccco4)nc(N)nc32)cn1` [Example 106, 7-(2-furyl)-3-(5-methyl-2-pyrazinylmethyl)-3H-[1,2,3]triazolo[4,5-d]pyrimidine-5-amine] was 288.1 to 288.2 °C; that for `Nc1nc(-c2ccco2)c2nnn(Cc3cc(F)ccc3N)c2n1` [Example 171, 3-(2-amino-5-fluorobenzyl)-7-(2-furyl)-3H-[1,2,3]triazolo[4,5-d]pyrimidine-5-amine] was 219.3 °C. The compound `C[Si](C)(C)CCOCOc1cc([N+](=O)[O-])ccc1Cn1nnc2c(-c3ccco3)nc(N)nc21` gave a melting point of 136.5 to 137.6 °C. The compound `Nc1nc(-c2ccco2)c2nnn(CC(=O)c3ccccc3[N+](=O)[O-])c2n1` [Example 235, 2-(5-amino-7-(2-furyl)-3H-[1,2,3]triazolo[4,5-d]pyrimidin-3-yl)-1-(2-nitrophenyl)ethanone] registered a melting point of 231.6 to 231.7 °C. Then `Cc1cccnc1Cn1nnc2c(-c3ccco3)nc(N)nc21` [Example 95, 7-(2-furyl)-3-(3-methyl-2-pyridylmethyl)-3H-[1,2,3]triazolo[4,5-d]pyrimidine-5-amine], with 249.8 to 250 °C. Then `Cc1cccc(Cn2nnc3c(-c4ccco4)nc(N)nc32)c1` [Example 23, 7-(2-furyl)-3-(3-methylbenzyl)-3H-[1,2,3]triazolo[4,5-d]pyrimidine-5-amine], with 187.3 to 187.7 °C.

As to `Nc1nc(-c2ccco2)c2nnn(Cc3cc(F)ccc3F)c2n1` [Example 65, 3-(2,5-difluorobenzyl)-7-(2-furyl)-3H-[1,2,3]triazolo[4,5-d]pyrimidine-5-amine], the melting point was 208.1 to 208.2 °C. Then `Nc1nc(-c2ccco2)c2nnn(Cc3cccc(CN4C(=O)c5ccccc5C4=O)n3)c2n1` [Example 164, 7-(2-furyl)-3-(6-phthalimidomethyl-2-pyridylmethyl)-3H-[1,2,3]triazolo[4,5-d]pyrimidine-5-amine], with 120.1 to 121 °C. Then `CNCc1cccc(Cn2nnc3c(-c4ccco4)nc(N)nc32)n1` (as salt: hydrochloride) [Example 226, 7-(2-Furyl)-3-(6-(N-methylamino)methyl-2-pyridylmethyl)-3H-[1,2,3]triazolo[4,5-d]pyrimidine-5-amine], with 221.4 to 221.5 °C; and `CS(=O)(=O)N(Cc1cccc(Cn2nnc3c(-c4ccco4)nc(N)nc32)n1)Cc1cccc(Cn2nnc3c(-c4ccco4)nc(N)nc32)n1` [Example 237, N,N-bis(6-(5-amino-7-(2-furyl)-3H-[1,2,3]triazolo[4,5-d]pyrimidine-3-ylmethyl)-2-pyridylmethyl)methanesulphonamide], with 259.3 to 259.4 °C; and `Nc1nc(-c2ccco2)c2nnn(Cc3ccc4[nH]ccc4c3)c2n1` [Example 153, 7-(2-furyl)-3-(5-indolylmethyl)-3H-[1,2,3]triazolo[4,5-d]pyrimidine-5-amine], with 226.8 to 227.4 °C. Then `Nc1nc(-c2ccco2)c2nnn(Cc3ccc4nn[nH]c4c3)c2n1` [Example 158, 3-(1H-Benzotriazol-5-ylmethyl)-7-(2-furyl)-3H-[1,2,3]triazolo[4,5-d]pyrimidine-5-amine], with > 300 °C (dec.); and `Nc1nc(-c2ccccc2)c2nnn(Cc3cccc([N+](=O)[O-])c3)c2n1` [Example 130, 3-(3-nitrobenzyl)-7-phenyl-3H-[1,2,3]triazolo[4,5-d]pyrimidine-5-amine], with 149 to 149.6 °C; and `Cc1ccc(-c2nc(N)nc3c2nnn3Cc2cccs2)o1` [Example 61, 7-(5-methyl-2-furyl)-3-(2-thienylmethyl)-3H-[1,2,3]triazolo[4,5-d]pyrimidine-5-amine], with 193.8 to 194.1 °C.

As to `CC(C)CC(=O)NCc1cccc(Cn2nnc3c(-c4ccco4)nc(N)nc32)c1` [Example 85, N-(3-(5-amino-7-(2-furyl)-3H-[1,2,3]triazolo[4,5-d]pyrimidin-3-ylmethyl)benzyl)-3-methylbutanamide], the melting point was 215.9 to 217.5 °C. Then `Cc1nc(-c2nc(N)nc3c2nnn3Cc2cccc(N)c2)sc1C` [Example 240, 3-(3-aminobenzyl)-7-(4,5-dimethyl-2-thiazolyl)-3H-[1,2,3]triazolo[4,5-d]pyrimidine-5-amine], with 254.3 to 254.5 °C; and `Nc1nc(-c2ccco2)c2nnn(CC(=O)c3ccccc3)c2n1` [Example 211, 2-(5-Amino-7-(2-furyl)-3H-[1,2,3]triazolo[4,5-d]pyrimidin-3-yl)-1-phenylethanone], with 257.1 to 257.3 °C. The value for `Cc1ccc(-c2nc(N)nc3c2nnn3Cc2ccc(N)cc2)o1` [Example 184, 3-(4-aminobenzyl)-7-(5-methyl-2-furyl)-3H-[1,2,3]triazolo[4,5-d]pyrimidine-5-amine] was 219.7 to 220.4 °C; that for `Nc1nc(-c2cccs2)c2nnn(Cc3ccccc3F)c2n1` [Example 35, 3-(2-fluorobenzyl)-7-(2-thienyl)-3H-[1,2,3]triazolo[4,5-d]pyrimidine-5-amine] was 174 to 174.2 °C. `Cc1cccc(Cn2nnc3c(-c4ccco4)nc(N)nc32)n1` [Example 37, 7-(2-furyl)-3-(6-methyl-2-pyridylmethyl)-3H-[1,2,3]triazolo[4,5-d]pyrimidine-5-amine]: the melting point was 200.8 to 218.9 °C.
